# In patent US8604016B2, “Heterocyclic inhibitors of glutaminase” (Calithera Biosciences Inc., priority 2011, dated 2013):
# Tests used:
# Caco-2 cell monolayers = experiment: Caco-2 Permeability Assay (bidirectional); assay type: in vitro ADME
# Description: (§1) Caco-2 cells are commonly used in a confluent monolayer on a cell culture insert filter. When cultured in this format and under specific conditions, the cells become differentiated and polarized such that their phenotype, morphologically and functionally resembles the enterocytes lining the small intestine. The cell monolayer provides a physical and biochemical barrier to the passage of small molecules, and is widely used across the pharmaceutical industry as an in vitro model of the human small intestinal mucosa to predict the absorption of orally administered drugs (Hidalgo et al., Gastroenterology, 1989; Artursson, J. Pharm. Sci., 1990). The correlation between the in vitro apparent permeability (P ? app) across Caco-2 monolayers and the in vivo absorption is well established (Artursson et al., Biochem. Biophys. Res. Comm., 1991).
# (§2) The present assay was used to determine the bidirectional permeability of the compounds of the invention through Caco-2 cell monolayers. Caco-2 cells were grown in confluent monolayers where the media of both the apical (A) and basolateral (B) sides were at pH 7.4. Compounds were dosed at 1 μM in the presence of 200 μM Lucifer Yellow, on the apical side (A→B) or the basolateral side (B→A) for assessment, in duplicate.
# (§3) The absorption potential of compounds were classified as either Low (P-app <1×10^−6 cm/s) or High (P-app >1×10^−6 cm/s).
# [1] = Caco-2 Permeability Assay (bidirectional); assay type: in vitro ADME; conditions: human; for recovery at 120 min, 1 μM / Papp A→B at 120 min, 1 μM / Papp B→A at 120 min, 1 μM: pH 7.4; for Papp A→B at 120 min, 1 μM / Papp B→A at 120 min, 1 μM / permeability class (Low/High absorption potential) at 120 min, 1 µM / efflux ratio at 120 min, 1 µM: Caco-2; for Papp A→B at 120 min, 1 μM: Direction A→B; for Papp A→B at 120 min, 1 μM / Papp B→A at 120 min, 1 μM: unit not given (thresholds in 10^−6 cm/s); for Papp B→A at 120 min, 1 μM: Direction B→A; for permeability class (Low/High absorption potential) at 120 min, 1 µM: read-out: Permeability Classification; for efflux ratio at 120 min, 1 µM: (Papp B→A)/(Papp A→B)
# Description: as §1, §2, §3
# [2] = Solubility (18 hr vortex mixing at room temperature, filtration, HPLC); assay type: physicochemical; conditions: thermodynamic from solid
# Procedure: Ca. 1 mg portions of test article were combined with 120 μL solvent in wells of a 96×2 mL polypropylene plate. […] The contents of all wells were then filtered through a 0.45 μm GHP filter plate to yield clear filtrates. 5 μL of each filtrate was diluted into 100 μL DMF and vortex mixed to yield HPLC samples. Duplicate quantitation standards for each test article were prepared by diluting weighed portions of solid test article in measured volumes of DMF. 2 μL of each HPLC sample and quantitation standard were analyzed by HPLC using the method outlined in Table 5. Dissolved test article concentrations were calculated by peak area ratio against the appropriate quantitation standards.
# [3] = 50 mM citrate buffer pH 2.3, 20 °C, aqueous buffer, 50 mM Cit pH 2.3, room temperature
# [4] = 50 mM citrate buffer pH 3.3, 20 °C, aqueous buffer, 50 mM Cit pH 3.3, room temperature
# [5] = 50 mM citrate buffer pH 4.4, 20 °C, aqueous buffer, 50 mM Cit pH 4.4, room temperature
# [6] = 50 mM citrate buffer pH 5.4, 20 °C, aqueous buffer, 50 mM Cit pH 5.4, room temperature
# [7] = 20 °C, aqueous buffer, PBS, room temperature
# [8] = 20 °C, aqueous with cosolvent or surfactant or cyclodextrin, 10% CrEL/50 mM cit, room temperature
# [9] = 20 °C, aqueous with cosolvent or surfactant or cyclodextrin, 10% PS80/50 mM cit, room temperature
# [10] = 20 °C, aqueous with cosolvent or surfactant or cyclodextrin, 20% HPBCD/50 mM cit, room temperature
# [11] = 20 °C, aqueous with cosolvent or surfactant or cyclodextrin, 20% SBECD/50 mM cit, room temperature
# [12] = 20 °C, oil or lipid, Capryol 90, room temperature
# [13] = 20 °C, oil or lipid, Capryol PGMC, room temperature
# [14] = 20 °C, oil or lipid, Labrasol, room temperature
# [15] = 20 °C, oil or lipid, canola oil, room temperature
# [16] = 20 °C, organic solvent or mixture, EtOH, room temperature
# [17] = 20 °C, organic solvent or mixture, PEG400, room temperature
# [18] = 20 °C, organic solvent or mixture, PG, room temperature
# [19] = 20 °C, pH 1, simulated gastric fluid, 0.1M HCl, room temperature
# [20] = 20 °C, pH 13, aqueous buffer, 0.1M NaOH, room temperature
# [21] = 20 °C, saline or isotonic, 0.9% NaCl, room temperature
# [22] = water, room temperature (ca. 20 C)
"recovery at 120 min, 1 μM ([1]; Caco-2, pH 7.4, Direction A→B)","recovery at 120 min, 1 μM ([1]; Caco-2, pH 7.4, Direction B→A)","Papp A→B at 120 min, 1 μM [1]","Papp B→A at 120 min, 1 μM [1]","permeability class (Low/High absorption potential) at 120 min, 1 µM [1]","solubility at 18 h [2, 3]","solubility at 18 h [2, 4]","solubility at 18 h [2, 5]","solubility at 18 h [2, 6]","solubility at 18 h [2, 7]","solubility at 18 h [2, 8]","solubility at 18 h [2, 9]","solubility at 18 h [2, 10]","solubility at 18 h [2, 11]","solubility at 18 h [2, 12]","solubility at 18 h [2, 13]","solubility at 18 h [2, 14]","solubility at 18 h [2, 15]","efflux ratio at 120 min, 1 µM [1]",Structure (SMILES),Significant Efflux (Caco-2 cell monolayers),other results
117%,101%,1.38 ×10⁻⁶ cm/s,45 ×10⁻⁶ cm/s,> 1 ×10⁻⁶ cm/s,,,,,,,,,,,,,,,O=C(Cc1ccccc1)Nc1ccc(CCCCc2nnc(NC(=O)Cc3ccccn3)s2)nn1 [Compound 354],Yes (efflux ratios being significant when greater than or equal to 3 when the Papp (B→A) was greater than or equal to 1×10^−6 cm/s),
71%,56%,7.76 ×10⁻⁶ cm/s,27.2 ×10⁻⁶ cm/s,> 1 ×10⁻⁶ cm/s,< 4 µg/mL,< 4 µg/mL,< 4 µg/mL,< 4 µg/mL,< 4 µg/mL,732 µg/mL,851 µg/mL,2180 µg/mL,2720 µg/mL,11100 µg/mL,7920 µg/mL,77200 µg/mL,71 µg/mL,3.5,O=C(Cc1cccc(OC(F)(F)F)c1)Nc1ccc(CCCCc2nnc(NC(=O)C(O)c3cccc(Cl)c3)s2)nn1 (stereo not shown) [Compound 447],Yes (efflux ratios being significant when greater than or equal to 3 when the Papp (B→A) was greater than or equal to 1×10^−6 cm/s),"solubility at 18 h [2, 16]: 3920 µg/mL; solubility at 18 h [2, 17]: 57300 µg/mL; solubility at 18 h [2, 18]: 8260 µg/mL; solubility at 18 h [2, 19]: < 4 µg/mL; solubility at 18 h [2, 20]: 192 µg/mL; solubility at 18 h [2, 21]: 5 µg/mL; solubility at 18 h [2, 22]: < 4 µg/mL"
73%,80%,2.39 ×10⁻⁶ cm/s,41.6 ×10⁻⁶ cm/s,> 1 ×10⁻⁶ cm/s,,,,,,,,,,,,,,,CC(C)(C)OC(=O)NCc1cccc(CC(=O)Nc2nnc(CCCCc3ccc(NC(=O)Cc4ccccc4)nn3)s2)c1 [Compound 339],Yes (efflux ratios being significant when greater than or equal to 3 when the Papp (B→A) was greater than or equal to 1×10^−6 cm/s),
51%,66%,6.26 ×10⁻⁶ cm/s,41 ×10⁻⁶ cm/s,> 1 ×10⁻⁶ cm/s,< 4 µg/mL,< 4 µg/mL,< 4 µg/mL,< 4 µg/mL,< 4 µg/mL,309 µg/mL,378 µg/mL,651 µg/mL,476 µg/mL,7410 µg/mL,3680 µg/mL,20700 µg/mL,14 µg/mL,6.6,O=C(Cc1cccc(OC(F)(F)F)c1)Nc1ccc(CCCCc2nnc(NC(=O)[C@@H](O)c3ccccc3)s2)nn1 [Compound 703],Yes (efflux ratios being significant when greater than or equal to 3 when the Papp (B→A) was greater than or equal to 1×10^−6 cm/s),"solubility at 18 h [2, 16]: 2640 µg/mL; solubility at 18 h [2, 17]: 22400 µg/mL; solubility at 18 h [2, 18]: 4700 µg/mL; solubility at 18 h [2, 19]: < 4 µg/mL; solubility at 18 h [2, 20]: 656 µg/mL; solubility at 18 h [2, 21]: < 4 µg/mL; solubility at 18 h [2, 22]: < 4 µg/mL"
73%,82%,2.45 ×10⁻⁶ cm/s,44.5 ×10⁻⁶ cm/s,> 1 ×10⁻⁶ cm/s,,,,,,,,,,,,,,18,O=C(Cc1ccccc1)Nc1ccc(CCCCc2nnc(NC(=O)C(O)c3cccc(Cl)c3)s2)nn1 (stereo not shown) [Compound 318],Yes (efflux ratios being significant when greater than or equal to 3 when the Papp (B→A) was greater than or equal to 1×10^−6 cm/s),
